Results on two compounds are retold here after US20250228855A1, “PYRAZINAMIDE COMPOUNDS” (The General Hospital Corporation, priority 2022, published 2025).

Molecules are shown by their SMILES. Where a name gives a salt, the structure may show the parent alone. Read-outs that look alike come from different tables or passages of the source. Some results are limits rather than exact numbers.

The target of one data set is PfcProRS (Plasmodium falciparum, UniProt Q8I5R7). As to the kind of experiment: TR-FRET ligand displacement assay with tracer MAT379, PfcProRS. The data set is classed as binding. A general note: In TR-FRET formats the signal depends on donor and acceptor labels being close together.
Chain of PfcProRS (Q8I5R7 whole entry): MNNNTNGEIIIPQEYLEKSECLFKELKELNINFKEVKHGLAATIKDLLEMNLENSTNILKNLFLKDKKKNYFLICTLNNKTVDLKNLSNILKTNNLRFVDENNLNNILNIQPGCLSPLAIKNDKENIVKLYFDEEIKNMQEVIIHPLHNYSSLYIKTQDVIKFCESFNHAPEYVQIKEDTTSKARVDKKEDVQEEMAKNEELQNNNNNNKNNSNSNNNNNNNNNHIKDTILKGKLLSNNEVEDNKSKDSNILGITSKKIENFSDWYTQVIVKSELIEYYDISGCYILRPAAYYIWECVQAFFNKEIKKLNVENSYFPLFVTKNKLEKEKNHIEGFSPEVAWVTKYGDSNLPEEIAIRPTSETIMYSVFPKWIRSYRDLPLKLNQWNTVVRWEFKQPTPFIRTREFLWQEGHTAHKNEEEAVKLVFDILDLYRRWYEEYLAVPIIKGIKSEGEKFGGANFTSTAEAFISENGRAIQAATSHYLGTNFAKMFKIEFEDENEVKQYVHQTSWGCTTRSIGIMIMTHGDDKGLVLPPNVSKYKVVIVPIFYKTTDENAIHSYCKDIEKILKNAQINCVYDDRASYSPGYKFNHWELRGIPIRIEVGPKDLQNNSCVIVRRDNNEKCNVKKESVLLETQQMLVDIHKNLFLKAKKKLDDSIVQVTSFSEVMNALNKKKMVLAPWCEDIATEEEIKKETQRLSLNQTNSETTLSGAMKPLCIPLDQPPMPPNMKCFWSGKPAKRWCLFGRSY
The test system of data set [1] is luciferase-expressing P. berghei ANKA sporozoites. As to the kind of experiment: P. berghei liver stage assay in HuH7 cells. The settings on record: Plasmodium berghei, Huh-7; HuH7 hepatocytes, ~44 hpi, luminescence. Type of data set: cell-based. On the procedure:
(§1) Halofuginone and derivatives are active against liver stage Plasmodium parasites. NCP26 and MAT436 were evaluated in a tissue culture-based P. berghei liver stage model. Specifically, various test compounds were added in dose-response to human hepatocytes (HuH7) followed by infection with luciferase-expressing P. berghei ANKA sporozoites, which enabled quantification of parasite load by luminescence. In parallel, host cell viability was also assessed to provide an estimate of cellular selectivity.
(§2) P. berghei Liver Stage and HuH7 Host Hepatocyte Growth Assay: HuH7 cells (Sigma) were cultured in DMEM+L-Glutamine (Gibco) supplemented with 10% (v/v) heat-inactivated FBS (Sigma) and 1% (v/v) antibiotic/antimycotic (Sigma). Hepatocyte cultures were maintained in a standard tissue culture incubator at 37° C. Anopheles mosquitoes infected with luciferase-expressing P. berghei ANKA sporozoites were obtained from the Sporocore at the University of Georgia. […] At ˜44 hpi, HuH7 cell viability and P. berghei parasite load was assessed using CellTiter-Fluor (Promega) and Bright-Glo (Promega), respectively, using an Envision plate reader. Relative fluorescence and luminescence signal intensities were normalized to the negative control, 1% DMSO. EC50 values were determined using GraphPad Prism through fitting data to a dose response curve. […]

Data set [2] is described as follows: Storage stability of MAT436·HBr (LC-MS). Type of data set: physicochemical.
The subject of a further data set is P. falciparum Dd2-2D4. The data set is described as follows: P. falciparum asexual blood stage growth assay, wild-type Dd2-2D4. The settings on record: Plasmodium falciparum.
Data set [3] concerns halofuginone-induced (HFG-induced) P. falciparum. The data set is described as follows: P. falciparum asexual blood stage growth assay, halofuginone-induced parasites. The settings on record: Plasmodium falciparum.
Description: (§3) Asexual blood stage (ABS) P. falciparum parasites were treated with test compounds at varying concentrations for 72 h, followed by quantification of parasite growth by SYBR Green staining.
(§4) P. falciparum Asexual Blood Stage Growth Assay: This assay was performed as previously described.
The next data set concerns the target T1, HsProRS (Homo sapiens, UniProt P07814).
T1 sequence (P07814 1007-1512 limits assumed): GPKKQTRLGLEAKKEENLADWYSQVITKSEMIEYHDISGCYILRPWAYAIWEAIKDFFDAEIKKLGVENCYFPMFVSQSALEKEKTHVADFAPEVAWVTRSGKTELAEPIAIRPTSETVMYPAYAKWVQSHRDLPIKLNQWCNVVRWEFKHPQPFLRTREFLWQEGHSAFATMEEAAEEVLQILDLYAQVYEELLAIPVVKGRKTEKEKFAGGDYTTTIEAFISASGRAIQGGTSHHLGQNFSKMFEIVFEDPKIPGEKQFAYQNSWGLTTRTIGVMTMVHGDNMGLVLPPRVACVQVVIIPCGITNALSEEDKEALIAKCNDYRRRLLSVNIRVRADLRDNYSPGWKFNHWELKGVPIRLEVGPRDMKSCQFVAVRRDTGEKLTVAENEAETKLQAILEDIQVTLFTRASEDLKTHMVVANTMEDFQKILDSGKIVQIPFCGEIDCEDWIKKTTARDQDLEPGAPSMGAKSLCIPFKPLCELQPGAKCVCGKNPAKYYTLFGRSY
As to the kind of experiment: TR-FRET ligand displacement assay with tracer MAT379, HsProRS. Type of data set: binding.

A further data set has as its system HuH7 cells. The data set is described as follows: HuH7 host hepatocyte viability assay. The settings on record: Homo sapiens, Huh-7; host cell viability. The data set is classed as cell-based. On the procedure:
as §1, §2

[4] abbreviates: PfcProRS (KD [nM]) +proline, 100 μM Pro.
Setting [5] is: DD2, 72 h, read-out: Dd2 (EC50 [nM]) wt.
The mark [6] stands for this setting: DD2, read-out: EC50 against Dd2-2D4 wildtype parasites.
[7] abbreviates: DD2, 72 h, read-out: Dd2 (EC50 [nM]) Halofuginone-induced.

Description for P. falciparum Dd2-2D4: as §3, §4

The term Kd denotes the free concentration of one partner at which half of the binding sites on the other are occupied at equilibrium, for simple one-to-one binding. The term EC50 denotes the concentration giving half of the maximal effect. Take `O=C(C[C@H]1NCCC[C@@H]1OC(=O)NS(=O)(=O)N1CCN(C(=O)Nc2nccnc2C(=O)NC2Cc3ccccc3C2)CC1)Cn1cnc2cc(Br)c(Cl)cc2c1=O` (relative stereo) [MAT436 (34), trans-2-(3-(7-bromo-6-chloro-4-oxoquinazolin-3(4H)-yl)-2-oxopropyl)piperidin-3-yl ((4-((3-((2,3-dihydro-1H-inden-2-yl)carbamoyl)pyrazin-2-yl)carbamoyl)piperazin-1-yl)sulfonyl)carbamate hydrobromide]: the Kd turned out to be 0.722 nM on PfcProRS (setting [4]) and 0.375 nM on PfcProRS (absence of ATP, read-out: KD for PfcProRS). Further, at PfcProRS (absence of ATP), the “fold affinity for PfcProRS compared to halofuginone in the absence of ATP” value is > 10^4 fold. Besides, the EC50 came to 186 nM in data set [1], 6.76 nM in the data set with P. falciparum Dd2-2D4 (setting [5]), 6.8 nM in the data set with P. falciparum Dd2-2D4 (setting [6]) and 251 nM in data set [3] (setting [7]). Also, the “hydrolyzed at carbamate carbonyl” value in data set [2] (10 mM stock solution in DMSO, 8 days at room temperature, LC-MS) was about 36%. Moreover, the “stability of neat compound” value in data set [2] (neat, 4° C.) is “stable indefinitely”.
`O=C(NC1Cc2ccccc2C1)c1nccnc1NC(=O)N1CCCCC1` [NCP26 (3), N-(2,3-dihydro-1H-inden-2-yl)-3-(piperidine-1-carboxamido)pyrazine-2-carboxamide]: the Kd on PfcProRS (PfcProRS (KD [nM]) +ATP, 500 μM ATP) was 103 nM; on PfcProRS (setting [4]), 2.52 nM; on PfcProRS (no proline, no ATP, read-out: PfcProRS (KD [nM]) −) it was 130 nM; on HsProRS (no proline, no ATP, read-out: HsProRS (KD [nM]) −), 271 nM; at HsProRS (read-out: HsProRS (KD [nM]) +ATP, +ATP), 678 nM; at HsProRS (read-out: HsProRS (KD [nM]) +proline, 100 μM Pro), 0.351 nM. For the same compound, the EC50 in data set [1] was 249 nM; with HuH7 cells, over 2500 nM; in the data set with P. falciparum Dd2-2D4 (setting [5]) it was 67.4 nM; with P. falciparum Dd2-2D4 (setting [6]) it was 67.4 nM; in data set [3] (setting [7]) it was 120 nM; in data set [3] (read-out: EC50 in halofuginone-induced parasites), 120 nM.
